Results from patent US11040108B2, “Amino acid- and peptide-steroid conjugates and use thereof” (BRANDEIS UNIVERSITY, priority 2016, dated 2021).
Where two headings read alike, the source gives them in different places.

What was measured:
HeLa cells = assay: MTT assay, cytotoxicity against HeLa; assay type: cell-based, human
Experimental: (§1) HeLa, Saos-2, HS-5, HepG2, T98G, and A2780 cells were purchased from American-type Culture Collection (ATCC, USA). A2780cis cell was purchased from Sigma. HeLa cells, HepG-2 cells, and T98G cells were cultured in MEM Medium supplemented with 10% v/v fetal bovine serum, 100 U/mL penicillin, and 100 μg/mL streptomycin. Saos-2 cells were cultured in McCoy's 5a Medium (for Saos-2) supplemented with 15% v/v fetal bovine serum, 100 U/mL penicillin, and 100 μg/mL streptomycin. HS-5 cells were cultured in Dulbecco's Modified Eagle's medium (DMEM) supplemented with 10% v fetal bovine serum (FBS), 100 U/mL penicillin, and 100 μg/mL streptomycin. A2780cis cells were cultured in RPMI 1640 Medium supplemented with 10% v/v fetal bovine serum, 100 U/mL penicillin, and 100 μg/mL streptomycin (cisplatin only necessary every 2-3 passages). All cells were maintained at 37° C. in a humidified atmosphere of 5% CO2.
(§2) An MTT assay was used to test the cytotoxicity. All different cell lines were seeded in 96-well plates at 1×10^5 cells/well for 24 hours followed by removal of the culture medium and subsequent addition of culture medium containing different concentrations of the precursors. At designated time (24/48/72 hours), 10 μL MTT solution (5 mg/mL) was added to each well and incubated at 37° C. for another 4 hours, and then 100 μL of SDS-HCl solution was added to stop the reduction reaction and dissolve the purple formazan. The absorbance of each well at 595 nm was measured by a multimode microplate reader. The cytotoxicity assay was performed three times and the average value of the three measurements was taken.
To confirm that assemblies of the cholesterol conjugate are able to inhibit other cancer cell lines, 1a was incubated with HeLa cells, a widely studied malignant cervical cancer cell line.

[1] = tested on: HepG2 human liver carcinoma cells; assay: MTT assay, cell viability of HepG2; assay type: cell-based; conditions: read-out: IC50 against HepG-2
Experimental: as §1
An MTT assay was used to test the cytotoxicity. All different cell lines were seeded in 96-well plates at 1×10^5 cells/well for 24 hours followed by removal of the culture medium and subsequent addition of culture medium containing different concentrations of the precursors. […] The absorbance of each well at 595 nm was measured by a multimode microplate reader. […]

[2] = tested on: Kuramochi ovarian cancer cells; assay: MTT assay, cell viability of Kuramochi; assay type: cell-based; conditions: read-out: IC50 against Kuramochi
Experimental: as §2
Additional cell viability assays were carried out using conjugates 1a and 1b, optionally with 3, against HepG2 human liver carcinoma cells, Saos-2 osteosarcoma cells, T98G glioblastoma cells, HS-5 (normal bone marrow stromal cells), A2780 ovarian cancer cells (parental line to A2780cis), and Kuramochi ovarian cancer cells. Conjugate 1a was particularly effective against ovarian and cervical cancer cells.

[3] = tested on: Src, Akt, p-SAPK/JNK in A2780cis cell lines; assay: Expression of Src, Akt and p-SAPK/JNK (CLSM, Western blot); assay type: cell-based, human
Experimental: Further exploration of the mode of action of 1a against A2780cis and HeLa cells was carried out via Western blot for the following ER stress markers: CHOP, Bip, PDI, IRE1α, Calnexin, Erol-Lα, PERK, and β-actin; or p-SAPK/JNK. Western blot was carried out via gel electrophoresis at […] for 1.5 hrs, and then transferring the protein on the gel to PVDF membranes for overnight at […] (4° C.). After that, the membrane was incubated with primary antibodies (obtained from Cell Signaling Technology) overnight at 4° C. The membrane was then incubated with secondary antibodies for 1 h at room temperature. This was followed by the reaction with ECL solutions for 10 minutes, and analysis of the results by autoradiography. Generation of ROS was detected in CLSM images via DHE emissions in exposed cells. CLSM imaging was carried out at the excitation of 543 nm and DHE emission was detected at the wavelength at 575 nm to 625 nm; or detection of anti-phospho-SRC and anti-phospho-Akt.
In addition, 1a causes down regulation of cell survival proteins, Akt (Alexander, “Inhibiting the Akt Pathway in Cancer Treatment,” Pharmacy & Therapeutics 36(4): 225-227 (2011), which is hereby incorporated by reference in its entirety) and Src (Irby et al., “Role of Src Expression and Activation in Human Cancer,” Oncogene 19(49):5636-5642 (2000), which is hereby incorporated by reference in its entirety). […]

[4] = TEM of assemblies in aqueous solution; assay type: physicochemical; conditions: 1.0 wt %
Experimental: Sample solution (5 sufficient to cover the grid surface) was placed on the grid. Approximately 10 sec later, sample was rinsed by placing a large drop of the ddH2O on parafilm and allowing the grid to touch the water drop, with the sample-loaded surface facing the parafilm. The grid was tilted and water was gently absorbed from the edge of the grid using a filter paper sliver. This procedure was repeated 3 times. Immediately after rinsing, the staining was conducted by placing a large drop of the uranyl acetate (UA) stain solution on parafilm and allowing the grid to touch the stain solution drop, with the sample-loaded surface facing the parafilm. The grid was tilted and the stain solution was gently absorbed from the edge of the grid using a filter paper sliver. Next, the grid was allowed to dry in air and the grid was examined as soon as possible.
To further understand the inhibitory activity of 1a, transmission electron microscopy (TEM) was used to confirm the EISA of 1b. […] In contrast, uniform nanofibers (diameter of 10±2 nm) formed after the addition of ALP (1 U/mL) into the solution of 1a (FIG. 3B). The resulted nanofibers entangled with each other to result in a viscous solution. […] But the direct dissolution of 2b (1.0 wt %) provided an aqueous solution containing nanoribbon with the diameter of 17±2 nm and in several hundred nanometer length (FIG. 4B). These observations, collectively, confirmed that enzymatic reaction modulated the morphology of the assemblies of the cholesterol conjugates, which partially contributed to the different inhibitory activities of 1a, 1b, 2a, and 2b. That is, being exposed to the cancer cell, 1a (or 2a) turns into 1b (or 2b), a process catalyzed by the extra- or intracellular enzymes of the cancer cells; the resulting 1b (or 2b) self-assembled to form nanoscale assemblies that result in death of the cancer cell.

CC(C)CCC[C@@H](C)C1CC[C@H]2[C@@H]3CC=C4CC(OC(=O)NC(Cc5ccc(OP(=O)(O)O)cc5)C(=O)O)CC[C@]4(C)[C@H]3CC[C@]12C (stereo partly drawn) [1a, Cholesterol-(phospho)D-Tyr]
viability of HeLa cell treated by 1a with phosphatase or cell death signaling inhibitors (HeLa cells; 1a 12.5 μM + ALP, L-Phe, levamisole, zVAD-fmk, PJ34 or Nec-1, 48 hours): significantly increased the viability
IC50 (HeLa cells; 48 hours, read-out: IC50 against HeLa cell): 19 µM
IC50 (HeLa cells; Homo sapiens, HeLa, 48 h, read-out: IC50 against HeLa cell): 18.6 µM
IC50 (HeLa cells; Homo sapiens, HeLa, 72 h, read-out: IC50 against HeLa): 16 µM
viability of HeLa cells (HeLa cells; treated by 1a, 24 hours): most HeLa cells were viable
IC50 ([1]; 48 hours): 45 µM
IC50 ([1]; 72 hours): 35 µM
IC50 ([2]; 48 hours): 19 µM
IC50 ([2]; 72 hours): 13 µM
expression of Src and Akt ([3]; 1a 12.5 μM, 24 hours): downregulates
p-SAPK/JNK expression levels ([3]; 24 hour treatment, Western blot): enhanced
morphology in aqueous solution without ALP ([4]; pH 7.4): disorder aggregates
diameter of nanofibers formed after addition of ALP ([4]; pH 7.4, ALP 1 U/mL, 24 hours): 10±2 nm
